Measured values: patent US7258872B1, “Chromone enteric release formulation” (Thornton & Ross Limited, priority 1998, dated 2007)

Key:
[1] = Solubility of sodium cromoglycate in water; type: physicochemical
From the text: Water may be used without additional binder or surfactant.

[2] = cited from earlier work
[3] = test system: B lymphocytes; conditions: cited from earlier work

freely soluble up to [1]: up to 5% | soluble with difficulty up to [1]: up to 10%
SMILES: O=C(O)c1cc(=O)c2c(OCC(O)COc3cccc4oc(C(=O)O)cc(=O)c34)cccc2o1 [sodium cromoglycate]
solubility in acid ([2]; acid medium / gastric fluid): insoluble in an acid medium | lipid solubility ([2]; model assumption): lipid insoluble | water solubility ([2]; model assumption): water soluble | effect on IgE synthesis by B lymphocytes [3]: reduce the ability of IgE-producing cells, the B lymphocytes, to synthesise IgE antibody
